Data as given in ChEMBL document CHEMBL1201862, “PubChem BioAssay data set” (2004).
Activity calls are given as the source filed them. Cut-off read from the data, not from the text of the source, for most assays here: actives have a measured EC50 and inactives only a lower limit.

How the values were obtained:
Protein skinhead-1 = target: T1, Protein skinhead-1 (Caenorhabditis elegans, UniProt P34707); type: functional
T1 sequence (P34707 whole entry): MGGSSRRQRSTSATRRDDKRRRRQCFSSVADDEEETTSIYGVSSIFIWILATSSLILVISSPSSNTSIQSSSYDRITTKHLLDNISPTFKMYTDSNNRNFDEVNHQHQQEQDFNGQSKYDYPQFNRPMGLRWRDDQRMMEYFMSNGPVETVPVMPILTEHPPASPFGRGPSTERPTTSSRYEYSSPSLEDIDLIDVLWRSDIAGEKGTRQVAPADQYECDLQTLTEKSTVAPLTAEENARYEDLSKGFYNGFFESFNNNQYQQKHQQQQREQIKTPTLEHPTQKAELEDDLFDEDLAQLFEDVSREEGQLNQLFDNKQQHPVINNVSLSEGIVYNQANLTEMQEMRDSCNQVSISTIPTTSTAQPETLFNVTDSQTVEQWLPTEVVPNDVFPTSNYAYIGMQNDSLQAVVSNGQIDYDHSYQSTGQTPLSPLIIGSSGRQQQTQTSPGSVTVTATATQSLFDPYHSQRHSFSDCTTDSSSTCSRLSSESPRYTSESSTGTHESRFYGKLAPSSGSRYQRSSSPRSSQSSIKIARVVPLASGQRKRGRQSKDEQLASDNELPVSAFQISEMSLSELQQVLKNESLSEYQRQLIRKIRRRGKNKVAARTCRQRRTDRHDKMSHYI

Paired box protein Pax-8 = Paired box protein Pax-8 (Homo sapiens, UniProt Q06710); assay: inhibitors of PAX8-driven TPO luciferase reporter, dose response, RMG-I cells, cherry-pick (AID 687027); type: functional, cell-based;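 note: luciferase reporter driven by Pax8 target thyroperoxidase promoter measured by SteadyGlo luminescence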
Paired box protein Pax-8, sequence (Q06710 whole entry, the tested form may be a part): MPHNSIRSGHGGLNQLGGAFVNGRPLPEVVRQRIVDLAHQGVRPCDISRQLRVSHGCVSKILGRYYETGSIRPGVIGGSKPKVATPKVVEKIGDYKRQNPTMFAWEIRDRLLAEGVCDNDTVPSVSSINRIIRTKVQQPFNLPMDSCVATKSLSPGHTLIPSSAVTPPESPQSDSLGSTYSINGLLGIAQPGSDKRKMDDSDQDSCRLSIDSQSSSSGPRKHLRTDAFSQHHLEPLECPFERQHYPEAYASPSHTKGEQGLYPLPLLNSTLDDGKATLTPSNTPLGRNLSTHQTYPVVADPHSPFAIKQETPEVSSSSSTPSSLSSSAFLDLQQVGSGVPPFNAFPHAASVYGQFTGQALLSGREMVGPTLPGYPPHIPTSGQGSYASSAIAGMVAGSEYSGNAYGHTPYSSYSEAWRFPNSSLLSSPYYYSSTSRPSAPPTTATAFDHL

[1] = target: T2, Carboxy-terminal domain RNA polymerase II polypeptide A small phosphatase 1 (Homo sapiens, UniProt Q9GZU7); assay: inhibitors of CTDSP1, concentration-response testing, biochemical assay, absorbance-based, actives from ultra-high-throughput screening (AID 540297); type: functional
T2 sequence (Q9GZU7 whole entry): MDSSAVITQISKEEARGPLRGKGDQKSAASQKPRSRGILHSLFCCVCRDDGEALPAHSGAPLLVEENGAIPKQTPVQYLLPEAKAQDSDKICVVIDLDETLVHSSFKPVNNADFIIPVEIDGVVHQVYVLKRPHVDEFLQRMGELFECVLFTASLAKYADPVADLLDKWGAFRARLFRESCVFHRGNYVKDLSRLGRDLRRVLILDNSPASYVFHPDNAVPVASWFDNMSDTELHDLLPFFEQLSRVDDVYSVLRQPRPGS

[2] = target: T3, RNA-binding protein pos-1 (Caenorhabditis elegans, UniProt G5EF15); assay: inhibitors of POS-1/mex-3 RNA binding, dose response, biochemical, fluorescence polarization (AID 1964);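 note: purified POS-1 fused to maltose binding protein made in E. coli; potency of compounds blocking POS-1 binding to fluorescent RNA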
T3 sequence (G5EF15 whole entry): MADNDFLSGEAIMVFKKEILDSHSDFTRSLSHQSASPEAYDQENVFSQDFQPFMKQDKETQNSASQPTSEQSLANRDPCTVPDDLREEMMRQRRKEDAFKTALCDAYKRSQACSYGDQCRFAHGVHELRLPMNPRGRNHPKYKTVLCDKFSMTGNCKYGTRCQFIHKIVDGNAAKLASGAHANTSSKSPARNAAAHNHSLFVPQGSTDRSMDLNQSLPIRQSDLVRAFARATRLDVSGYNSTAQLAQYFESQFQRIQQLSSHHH

[3] = target: T4, Zinc finger protein mex-5 (Caenorhabditis elegans, UniProt Q9XUB2); assay: MEX-5/TCR-2 RNA interaction inhibitors, dose response, biochemical, C. elegans, fluorescence polarization (AID 1960)
T4 sequence (Q9XUB2 whole entry): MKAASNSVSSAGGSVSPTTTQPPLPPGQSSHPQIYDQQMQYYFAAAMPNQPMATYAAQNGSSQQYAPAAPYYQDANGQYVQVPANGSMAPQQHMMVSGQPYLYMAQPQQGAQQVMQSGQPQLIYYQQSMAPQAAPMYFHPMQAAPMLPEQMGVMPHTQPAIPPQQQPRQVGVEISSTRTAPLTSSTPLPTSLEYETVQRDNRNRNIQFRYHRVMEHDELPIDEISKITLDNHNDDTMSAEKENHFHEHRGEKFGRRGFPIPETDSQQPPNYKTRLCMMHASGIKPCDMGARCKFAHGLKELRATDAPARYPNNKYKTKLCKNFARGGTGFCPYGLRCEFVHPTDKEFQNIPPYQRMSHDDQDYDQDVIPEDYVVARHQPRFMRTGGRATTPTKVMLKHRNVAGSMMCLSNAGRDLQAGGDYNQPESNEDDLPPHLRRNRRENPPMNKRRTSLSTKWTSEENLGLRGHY

[4] = target: T5, Polyadenylate-binding protein 1 (Homo sapiens, UniProt P11940); assay: PABP1 MLLE–PAM2 interaction inhibitors, dose response, miRNA deadenylation inhibitor project, biochemical, fluorescence polarization, Cy5-PAM2 peptide, secondary (AID 602260); type: functional; settings: read-out: IC50_Mean
T5 sequence (P11940 whole entry): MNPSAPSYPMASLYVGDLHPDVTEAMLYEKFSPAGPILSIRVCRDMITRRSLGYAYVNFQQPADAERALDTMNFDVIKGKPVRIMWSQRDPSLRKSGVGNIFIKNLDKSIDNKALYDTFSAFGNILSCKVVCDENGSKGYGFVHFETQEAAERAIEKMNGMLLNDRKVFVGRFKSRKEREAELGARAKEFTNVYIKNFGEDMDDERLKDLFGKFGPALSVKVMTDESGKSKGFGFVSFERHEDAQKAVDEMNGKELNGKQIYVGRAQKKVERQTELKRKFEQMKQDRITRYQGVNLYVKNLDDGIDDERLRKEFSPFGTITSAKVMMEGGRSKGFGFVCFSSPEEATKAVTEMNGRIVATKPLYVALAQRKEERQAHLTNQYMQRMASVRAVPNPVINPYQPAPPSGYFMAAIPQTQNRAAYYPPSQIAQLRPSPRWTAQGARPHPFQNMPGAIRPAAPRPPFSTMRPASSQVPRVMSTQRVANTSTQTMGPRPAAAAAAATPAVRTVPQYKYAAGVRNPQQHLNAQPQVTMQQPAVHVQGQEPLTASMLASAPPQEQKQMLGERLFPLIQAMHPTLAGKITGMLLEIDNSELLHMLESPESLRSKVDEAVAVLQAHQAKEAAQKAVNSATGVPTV

[5] = target: T6, Corticotropin-releasing factor receptor 2/Corticotropin-releasing factor-binding protein (Homo sapiens, UniProt P24387+Q13324); assay: Dose Response confirmation of uHTS hits for small molecule antagonists of the CRF-binding protein and CRF-R2 receptor complex.; type: functional; settings: read-out: IC50_Mean
T6 sequence (Q13324 whole entry): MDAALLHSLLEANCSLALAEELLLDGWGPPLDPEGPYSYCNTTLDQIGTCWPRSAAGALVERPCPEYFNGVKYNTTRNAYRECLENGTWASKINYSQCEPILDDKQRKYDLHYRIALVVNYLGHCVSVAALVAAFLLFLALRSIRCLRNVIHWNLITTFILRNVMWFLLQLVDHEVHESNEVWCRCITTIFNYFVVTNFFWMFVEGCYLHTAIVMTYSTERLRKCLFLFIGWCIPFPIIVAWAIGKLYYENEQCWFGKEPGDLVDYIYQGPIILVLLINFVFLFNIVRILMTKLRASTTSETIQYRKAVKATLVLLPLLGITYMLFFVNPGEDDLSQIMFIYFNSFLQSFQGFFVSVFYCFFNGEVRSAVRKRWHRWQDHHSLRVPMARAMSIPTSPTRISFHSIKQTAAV
T6 sequence (P24387 whole entry): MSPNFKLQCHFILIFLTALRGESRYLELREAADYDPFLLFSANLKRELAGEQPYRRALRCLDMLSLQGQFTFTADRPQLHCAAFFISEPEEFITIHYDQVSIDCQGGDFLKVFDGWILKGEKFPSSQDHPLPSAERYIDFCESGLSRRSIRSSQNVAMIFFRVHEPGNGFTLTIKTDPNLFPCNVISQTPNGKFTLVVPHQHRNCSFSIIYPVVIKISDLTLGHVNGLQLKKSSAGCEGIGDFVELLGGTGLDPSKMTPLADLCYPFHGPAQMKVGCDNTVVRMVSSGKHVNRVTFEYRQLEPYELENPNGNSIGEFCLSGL

[6] = target: T5, Polyadenylate-binding protein 1; assay: PABP1 MLLE–PAM2 binding inhibitor potency, dose response, biochemical, fluorescence polarization, FITC-PAM2 peptide (AID 602259); type: functional; settings: read-out: IC50_Mean
[7] = target: T6, Corticotropin-releasing factor receptor 2/Corticotropin-releasing factor-binding protein; assay: activators of CRF receptor 2 with binding protein – uHTS hits, confirmation (AID 602473); type: functional; settings: read-out: EC50_Mean
BJ [8] = assay: cytotoxicity toward BJ-TERT fibroblasts, dose response, cell-based, RAS-independent, luminescence (AID 1933); type: functional; settings: Homo sapiens
BJ [9] = assay: cells; type: functional, cell-based; settings: Homo sapiens
BJ [10] = assay: cytotoxicity toward BJ-TERT-LT-ST fibroblasts, dose response, cell-based, RAS-independent, luminescence (AID 1935); type: functional; settings: Homo sapiens;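 note: BJ fibroblasts immortalized with TERT plus LT and ST oncogenes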
[11] = cytotoxicity toward DRD oncogenic fibroblasts, dose response, cell-based, non-viral oncogenic, luminescence (AID 1934); type: functional; settings: Homo sapiens

SMILES: Cn1ncc2c(NCCc3ccccc3)nc(Cl)nc21
- IC50 (Protein skinhead-1): > 100 µM (inactive)

SMILES: COc1cc2nc(C3CCC3)nc(N3CCN(c4ccccc4OC)CC3)c2cc1OC
- AC50 (Paired box protein Pax-8): 18.9 µM (active)

SMILES: O=C1c2ccccc2C(=O)N1Nc1ccc([N+](=O)[O-])cc1[N+](=O)[O-]
- IC50 [1]: 16.9 µM (active)

SMILES: Cc1ccc(NC(=O)CSCC(=O)Nc2ccccc2C(=O)N2CCCCC2)cc1
- IC50 (Protein skinhead-1): > 100 µM (inactive)

SMILES: CC(C)(C)OC(=O)NCCCCC1=CC2=CC(=O)C(C)(OC(=O)c3cnc4ccccc4n3)C(=O)C2=CO1 (stereo unspecified)
- EC50 [2]: 17.2 µM (active)
- EC50 [3]: 15 µM (active)

SMILES: O=C(O)CCc1ccc(-c2cccs2)n1-c1ccc(C(=O)O)cc1
- EC50 [2]: > 300 µM (not active)
- EC50 [3]: > 300 µM (not active)

SMILES: Cc1cc(C)c(NC(=O)COC(=O)C2CCN(c3ccc(C(F)(F)F)cn3)CC2)c(Cl)c1
- IC50 (Protein skinhead-1): > 100 µM (inactive)

SMILES: C[C@H]1CCCCO[C@@H](CN(C)C(=O)NC2CCCCC2)[C@@H](C)CN([C@@H](C)CO)C(=O)c2cc(NC(=O)Nc3ccc(C(F)(F)F)cc3)ccc2O1
- AC50 (Paired box protein Pax-8): 2.54 µM (active)

SMILES: CN(C(=O)CN1C(=O)/C(=C/c2ccccc2Cl)SC1=S)C1CCS(=O)(=O)C1 (stereo unspecified)
- IC50 [4]: > 66 µM (inactive)
- IC50 [5]: > 47.1 µM (inactive)
- IC50 [6]: > 66 µM (inactive)
- EC50 [7]: > 53 µM (inactive)

SMILES: c1ccc(-c2cn3c(n2)-c2ccccc2C3)cc1
- EC50 (BJ [8]): 14.9 µM (active)
- EC50 (BJ [9]): 14.3 µM (active)
- EC50 (BJ [10]): > 150 µM (inconclusive)
- EC50 [11]: 11.6 µM (active)

SMILES: CCOc1ccc(C(=O)Nc2ccc(NC(=O)c3ccccc3)c(C)c2)cc1[N+](=O)[O-]
- IC50 [1]: 5.03 µM (active)

SMILES: COc1ccc(C2C(C#N)=C(N)OC3=C2C(=O)CCC3)c(OC)c1OC (stereo unspecified)
- EC50 [2]: > 300 µM (not active)
- EC50 [3]: > 300 µM (not active)
